Test results from ChEMBL document CHEMBL1255305, “Affinity of doripenem and comparators to penicillin-binding proteins in Escherichia coli and Pseudomonas aeruginosa” (Antimicrob Agents Chemother, 2008).
Values after ≈ are worked out from the molar mass of the structure shown. Active and inactive are the calls of the source. The rule behind the calls is not given here.

Assays:
[1] = Inhibition of Bocillin FL binding to PBP4 in Pseudomonas aeruginosa 27853 membranes
[2] = Inhibition of Bocillin FL binding to PBP1A in Escherichia coli MC4100 membranes; assay type: cell membranes
[3] = Inhibition of Bocillin FL binding to PBP3 in Pseudomonas aeruginosa PAO1 membranes
[4] = Inhibition of Bocillin FL binding to PBP1B in Escherichia coli MC4100 membranes; assay type: cell membranes
[5] = Inhibition of Bocillin FL binding to PBP2 in Escherichia coli MC4100 membranes; assay type: cell membranes
[6] = Inhibition of Bocillin FL binding to PBP1B in Pseudomonas aeruginosa 27853 membranes
[7] = Inhibition of Bocillin FL binding to PBP3 in Pseudomonas aeruginosa 27853 membranes
[8] = Inhibition of Bocillin FL binding to PBP1A in Pseudomonas aeruginosa PAO1 membranes
Escherichia coli [9] = experiment: Antimicrobial activity against Escherichia coli MC4100 by CLSI protocol based broth microdilution method; assay type: functional
[10] = Inhibition of Bocillin FL binding to PBP5/6 in Pseudomonas aeruginosa 27853 membranes
[11] = Inhibition of Bocillin FL binding to PBP5 in Escherichia coli MC4100 membranes; assay type: cell membranes
[12] = Inhibition of Bocillin FL binding to PBP5/6 in Pseudomonas aeruginosa PAO1 membranes
Escherichia coli [13] = experiment: Induction of morphological changes in Escherichia coli MC4100 assessed as induction of sphere formation at antimicrobial MIC after 4 hrs by microscopy; assay type: functional, organism-based
[14] = Inhibition of Bocillin FL binding to PBP1A in Pseudomonas aeruginosa 27853 membranes
[15] = Inhibition of Bocillin FL binding to PBP3 in Escherichia coli MC4100 membranes; assay type: cell membranes
[16] = Inhibition of Bocillin FL binding to PBP2 in Pseudomonas aeruginosa 27853 membranes
[17] = Inhibition of Bocillin FL binding to PBP4 in Pseudomonas aeruginosa PAO1 membranes
[18] = Inhibition of Bocillin FL binding to PBP1B in Pseudomonas aeruginosa PAO1 membranes
Pseudomonas aeruginosa [19] = experiment: Antimicrobial activity against Pseudomonas aeruginosa PAO1 by CLSI protocol based broth microdilution method; assay type: functional
Pseudomonas aeruginosa [20] = experiment: Induction of morphological changes in Pseudomonas aeruginosa 27853 assessed as induction of sphere formation at antimicrobial MIC after 240 mins by microscopy; assay type: functional, organism-based
[21] = Inhibition of Bocillin FL binding to PBP6 in Escherichia coli MC4100 membranes; assay type: cell membranes
[22] = Inhibition of Bocillin FL binding to PBP4 in Escherichia coli MC4100 membranes; assay type: cell membranes
Pseudomonas aeruginosa [23] = experiment: Antimicrobial activity against Pseudomonas aeruginosa 27853 by CLSI protocol based broth microdilution method; assay type: functional
[24] = Inhibition of Bocillin FL binding to PBP2 in Pseudomonas aeruginosa PAO1 membranes
Pseudomonas aeruginosa [25] = experiment: Induction of morphological changes in Pseudomonas aeruginosa 27853 assessed as increase in cell length at antimicrobial MIC after 240 mins by microscopy; assay type: functional, organism-based
Pseudomonas aeruginosa [26] = experiment: Induction of morphological changes in Pseudomonas aeruginosa 27853 assessed as induction of sphere formation at antimicrobial MIC after 60 mins by microscopy; assay type: functional, organism-based
Pseudomonas aeruginosa [27] = experiment: Induction of morphological changes in Pseudomonas aeruginosa 27853 assessed as increase in cell length at antimicrobial MIC after 60 mins by microscopy; assay type: functional, organism-based

| SMILES | IC50 [1] | IC50 [2] | IC50 [3] | IC50 [4] | IC50 [5] | IC50 [6] | IC50 [7] | IC50 [8] | MIC (Escherichia coli [9]) | IC50 [10] | IC50 [11] | IC50 [12] | IC50 [14] | IC50 [15] | IC50 [16] | IC50 [17] | IC50 [18] | IC50 [21] | IC50 [22] | IC50 [24] | also measured |
| --- | --- | --- | --- | --- | --- | --- | --- | --- | --- | --- | --- | --- | --- | --- | --- | --- | --- | --- | --- | --- | --- |
| C[C@@H](O)[C@H]1C(=O)N2C(C(=O)O)=C(SCCNC=N)C[C@H]12 [IMIPENEM ANHYDROUS] | < 0.008 µg/mL | 0.5 µg/mL (≈ 1.67 µM) | 0.09 µg/mL (≈ 0.301 µM) | 0.4 µg/mL (≈ 1.34 µM) | 8 ng/mL (≈ 0.0267 µM) | 0.1 µg/mL (≈ 0.334 µM) | 0.3 µg/mL (≈ 1 µM) | 0.1 µg/mL (≈ 0.334 µM) | 0.25 µg/mL (≈ 0.835 µM) | 1 µg/mL (≈ 3.34 µM) | 0.4 µg/mL (≈ 1.34 µM) | 2 µg/mL (≈ 6.68 µM) | 0.1 µg/mL (≈ 0.334 µM) | 8 µg/mL (≈ 26.7 µM) | 0.1 µg/mL (≈ 0.334 µM) | 8 ng/mL (≈ 0.0267 µM) | 0.2 µg/mL (≈ 0.668 µM) | 0.1 µg/mL (≈ 0.334 µM) | 0.01 µg/mL (≈ 0.0334 µM) | 0.1 µg/mL (≈ 0.334 µM) | Activity (Escherichia coli [13]): Active; MIC (Pseudomonas aeruginosa [19]): 1 µg/mL (≈ 3.34 µM); Activity (Pseudomonas aeruginosa [20]): Active; MIC (Pseudomonas aeruginosa [23]): 2 µg/mL (≈ 6.68 µM) |
| CC(C)(O/N=C(\C(=O)N[C@@H]1C(=O)N2C(C(=O)[O-])=C(C[n+]3ccccc3)CS[C@H]12)c1csc(N)n1)C(=O)O [CEFTAZIDIME] | 2 µg/mL (≈ 3.66 µM) | 1.1 µg/mL (≈ 2.01 µM) | 0.1 µg/mL (≈ 0.183 µM) | 1.1 µg/mL (≈ 2.01 µM) | 4000 ng/mL (≈ 7.32 µM) | 1.6 µg/mL (≈ 2.93 µM) | 0.1 µg/mL (≈ 0.183 µM) | 0.2 µg/mL (≈ 0.366 µM) | 0.12 µg/mL (≈ 0.22 µM) | > 4 µg/mL | > 4 µg/mL | > 32 µg/mL | 0.3 µg/mL (≈ 0.549 µM) | 0.07 µg/mL (≈ 0.128 µM) | 4 µg/mL (≈ 7.32 µM) | 2000 ng/mL (≈ 3.66 µM) | 3 µg/mL (≈ 5.49 µM) | > 4 µg/mL | > 4 µg/mL | > 32 µg/mL | MIC (Pseudomonas aeruginosa [19]): 1 µg/mL (≈ 1.83 µM); MIC (Pseudomonas aeruginosa [23]): 1 µg/mL (≈ 1.83 µM) |
| C[C@@H](O)[C@H]1C(=O)N2C(C(=O)O)=C(S[C@@H]3CN[C@H](CNS(N)(=O)=O)C3)[C@H](C)[C@H]12 [DORIPENEM] | < 0.008 µg/mL | 1.2 µg/mL (≈ 2.85 µM) | 0.07 µg/mL (≈ 0.166 µM) | 1.2 µg/mL (≈ 2.85 µM) | 8 ng/mL (≈ 0.019 µM) | 0.6 µg/mL (≈ 1.43 µM) | 0.06 µg/mL (≈ 0.143 µM) | 0.5 µg/mL (≈ 1.19 µM) | 0.03 µg/mL (≈ 0.0713 µM) | > 4 µg/mL | 4 µg/mL (≈ 9.51 µM) | 8 µg/mL (≈ 19 µM) | 0.8 µg/mL (≈ 1.9 µM) | 2 µg/mL (≈ 4.76 µM) | 0.04 µg/mL (≈ 0.0951 µM) | 8 ng/mL (≈ 0.019 µM) | 0.6 µg/mL (≈ 1.43 µM) | 1 µg/mL (≈ 2.38 µM) | 0.02 µg/mL (≈ 0.0476 µM) | 0.06 µg/mL (≈ 0.143 µM) | Activity (Pseudomonas aeruginosa [25]): Active; Activity (Pseudomonas aeruginosa [26]): Active; Activity (Escherichia coli [13]): Active; MIC (Pseudomonas aeruginosa [19]): 0.25 µg/mL (≈ 0.595 µM); MIC (Pseudomonas aeruginosa [23]): 0.25 µg/mL (≈ 0.595 µM) |
| C[C@@H](O)[C@H]1C(=O)N2C(C(=O)O)=C(S[C@@H]3CN[C@H](C(=O)N(C)C)C3)[C@H](C)[C@H]12 [MEROPENEM] | 0.02 µg/mL (≈ 0.0522 µM) | 1.7 µg/mL (≈ 4.43 µM) | 0.08 µg/mL (≈ 0.209 µM) | 1.3 µg/mL (≈ 3.39 µM) | 8 ng/mL (≈ 0.0209 µM) | 0.6 µg/mL (≈ 1.56 µM) | 0.08 µg/mL (≈ 0.209 µM) | 0.5 µg/mL (≈ 1.3 µM) | 0.03 µg/mL (≈ 0.0782 µM) | > 4 µg/mL | 4 µg/mL (≈ 10.4 µM) | 16 µg/mL (≈ 41.7 µM) | 0.6 µg/mL (≈ 1.56 µM) | 0.6 µg/mL (≈ 1.56 µM) | 0.06 µg/mL (≈ 0.156 µM) | 8 ng/mL (≈ 0.0209 µM) | 0.5 µg/mL (≈ 1.3 µM) | 0.03 µg/mL (≈ 0.0782 µM) | 0.02 µg/mL (≈ 0.0522 µM) | 0.05 µg/mL (≈ 0.13 µM) | Activity (Pseudomonas aeruginosa [25]): Active; Activity (Pseudomonas aeruginosa [27]): Active; Activity (Escherichia coli [13]): Active; MIC (Pseudomonas aeruginosa [19]): 0.5 µg/mL (≈ 1.3 µM); MIC (Pseudomonas aeruginosa [23]): 0.25 µg/mL (≈ 0.652 µM) |
| C[C@H]1[C@H](NC(=O)/C(=N\OC(C)(C)C(=O)O)c2csc(N)n2)C(=O)N1S(=O)(=O)O [AZTREONAM] | > 4 µg/mL | > 8 µg/mL | 0.03 µg/mL (≈ 0.0689 µM) | > 8 µg/mL | > 8000 ng/mL | 2 µg/mL (≈ 4.59 µM) | < 0.02 µg/mL | 2 µg/mL (≈ 4.59 µM) | – | > 4 µg/mL | > 8 µg/mL | > 16 µg/mL | 2 µg/mL (≈ 4.59 µM) | 0.03 µg/mL (≈ 0.0689 µM) | 4 µg/mL (≈ 9.19 µM) | 16000 ng/mL (≈ 36.7 µM) | 2 µg/mL (≈ 4.59 µM) | > 8 µg/mL | > 8 µg/mL | 16 µg/mL (≈ 36.7 µM) | – |
